In patent US7977327B2, “Substituted pyrrolidine derivative” (Daiichi Sankyo Company, Limited, priority 2004, dated 2011):
In brackets after ≈: the same amount, converted by molar mass. Where a name gives a salt, the structure may show the parent alone. Read-outs that look alike come from different tables or passages of the source. Marks after values point to notes of the source that are not given here.

Experiments:
S. pyogenes G-36 = test: Antibacterial activity (MIC), standard method of the Japan Society of Chemotherapy; assay type: cell-based; details: Streptococcus pyogenes, G36
Description: (§1) The antimicrobial activities of the compounds of the present invention were determined according to a standard method designated by the Japan Society of Chemotherapy. The results are expressed by MIC (μg/mL) (Table 1). In Table 1, S. aureus 870307 and S. pneumonia J24 are quinolone-resistant bacteria.

S. flexneri 2A 5503 = test: as above; assay type: cell-based; details: Shigella flexneri, 2A5503, read-out: MIC
Description: as §1

E. coli NIHJ = test: as above; assay type: cell-based; details: Escherichia coli
Description: as §1

P. Vulgalis 08601 = test: as above; assay type: cell-based
Description: as §1

P. aeruginosa 32104 = test: as above; assay type: cell-based; details: Pseudomonas aeruginosa
Description: as §1

E. faevcalis ATCC 19433 = test: as above; assay type: cell-based
Description: as §1

S. marcescens 10100 = test: as above; assay type: cell-based; details: Serratia marcescens
Description: as §1

P. aeruginosa 32121 = test: as above; assay type: cell-based; details: Pseudomonas aeruginosa
Description: as §1

S. pneumoniae J24 = test: as above; assay type: cell-based; details: Streptococcus pneumoniae
Description: as §1

S. maltophilia IID 1275 = test: as above; assay type: cell-based; details: Stenotrophomonas maltophilia, IID1275
Description: as §1

S. epidermidis 56500 = test: as above; assay type: cell-based; details: Staphylococcus epidermidis
Description: as §1

K. pneumoniae TYPE I = test: as above; assay type: cell-based; details: Klebsiella pneumoniae
Description: as §1

S. aureus FDA 209P = test: as above; assay type: cell-based; details: Staphylococcus aureus, FDA209P
Description: as §1

S. aureus 870307 = test: as above; assay type: cell-based; details: Staphylococcus aureus
Description: as §1

Slc:ddY male mice = test: Effect of inducing convulsion, intracisternal administration to mice; assay type: in vivo; details: i.cist., Probit method
Description: The compounds (Compound Nos. 1, 2, and 3) of the present invention and Comparative Compounds A and B were individually dissolved in 5% glucose, to thereby prepare several samples to be tested. Groups of six-week-old Slc:ddY male mice (body weight: 23.9 to 27.4 g), each group consisting of 6 mice, were employed in the test. Each of the above-prepared samples was administered intracisternally to each mouse belonging to each group at concentrations shown in Tables 2 and 3 (5 μL/mouse). During 30 minutes after administration, it was observed whether each mouse suffered convulsion or died in an individual cage. Administration was performed according to the method described by Ueda, et al. (Reference 1).
Reference 1: Ueda H, Amano H, Shiomi H, Takagi H: Comparison of the analgesic effects of various opioid peptides by a newly devised intracisternal injection technique in conscious mice. Eur J Pharmacol. 1979; 56: 265-8.
Significant difference test between groups was performed in terms of incidence of convulsion according to the Fisher's direct probability calculation method (one-sided test, level of significance: P<0.05). On the basis of percentile incidence of convulsion, CD50 (50% concentration for inducing convulsion) and 95% confidence limit were calculated by the Probit method.

[1] = system: Chinese hamster lung (CHL/IU) cells; test: Effect of inducing chromosomal aberration; assay type: cell-based; details: for Percentile induction of structural aberration (TA %): 24 hours, CHL/IU cells; for Significant increase in number of the cells exhibiting chromosomal aberration: at a concentration of up to 100 μg/mL
Description: From each sample solution, samples to be tested having a concentration of 1, 3, 10, 30, 50, and 100 μg/mL (as reduced to free form) were prepared. As a negative control, 0.1 mol/L NaOH was employed.
Chinese hamster lung (CHL/IU) cells in logarithmic growth phase were employed. The cells were treated in a culture solution containing each sample to be tested for 24 hours. Subsequently, a chromosome specimen was prepared from the thus-treated cells. The culture solution employed was an Eagle's MEM (product of NISSUI PHARMACEUTICAL CO., LTD.) medium containing 15% fetal bovine serum (15% FBS-MEM).
In each sample concentration, 100 cells during metaphase were observed, to thereby record types and numbers of the chromosomal aberration.

[2] = S. pyogenes G-36, read-out: MIC
[3] = P. Vulgalis 08601, read-out: MIC
[4] = P. aeruginosa 32104, read-out: MIC
[5] = E. faevcalis ATCC 19433, read-out: MIC
[6] = S. marcescens 10100, read-out: MIC
[7] = P. aeruginosa 32121, read-out: MIC
[8] = S. pneumoniae J24, quinolone-resistant, read-out: MIC
[9] = S. maltophilia IID 1275, read-out: MIC
[10] = S. epidermidis 56500, read-out: MIC
[11] = K. pneumoniae TYPE I, read-out: MIC
[12] = S. aureus FDA 209P, read-out: MIC
[13] = S. aureus 870307, quinolone-resistant, read-out: MIC

SMILES	MIC (S. flexneri 2A 5503) [µg/mL]	CD50 (50% concentration for inducing convulsion), with 95% confidence limit (Slc:ddY male mice)	Percentile induction of structural aberration (TA %) ([1]; 1 μg/mL) [%]	Percentile induction of structural aberration (TA %) ([1]; 3 μg/mL) [%]	Percentile induction of structural aberration (TA %) ([1]; 10 μg/mL) [%]	Percentile induction of structural aberration (TA %) ([1]; 30 μg/mL)	Percentile induction of structural aberration (TA %) ([1]; 50 μg/mL)	MIC (S. pyogenes G-36; [2]) [µg/mL]	MIC (E. coli NIHJ; E. coli NIHJ, read-out: MIC) [µg/mL]	MIC (P. Vulgalis 08601; [3]) [µg/mL]	MIC (P. aeruginosa 32104; [4]) [µg/mL]	MIC (E. faevcalis ATCC 19433; [5]) [µg/mL]	MIC (S. marcescens 10100; [6]) [µg/mL]	MIC (P. aeruginosa 32121; [7]) [µg/mL]	MIC (S. pneumoniae J24; [8]) [µg/mL]	MIC (S. maltophilia IID 1275; [9]) [µg/mL]	MIC (S. epidermidis 56500; [10]) [µg/mL]	MIC (K. pneumoniae TYPE I; [11]) [µg/mL]	MIC (S. aureus FDA 209P; [12]) [µg/mL]	MIC (S. aureus 870307; [13]) [µg/mL]	other results
COc1c(N2C[C@@H](N)[C@@H](C)C2)c(F)cc2c(=O)c(C(=O)O)cn([C@@H]3C[C@@H]3F)c12 [Comparative Compound A, 7-[(3S,4S)-3-Amino-4-methylpyrrolidin-1-yl]-6-fluoro-1-[(1R,2S)-2-fluorocyclopropyl]-1,4-dihydro-8-methoxy-4-oxoquinoline-3-carboxylic acid-hydrochloride, reference compound]	0.006	12.7 (7.7-24.9)^a) μg/5 μL/mouse	–	–	–	–	–	–	–	–	–	–	–	–	–	–	–	–	–	–	MIC (S. pyogenes G-36): 0.05 µg/mL; MIC (E. coli NIHJ): 0.006 µg/mL; MIC (P. Vulgalis 08601): 0.006 µg/mL; MIC (P. aeruginosa 32104; 32104): 0.1 µg/mL; MIC (E. faevcalis ATCC 19433): 0.1 µg/mL; MIC (S. marcescens 10100; 10100): 0.05 µg/mL; MIC (P. aeruginosa 32121; 32121): 0.05 µg/mL; MIC (S. pneumoniae J24; J24): 0.025 µg/mL; MIC (S. maltophilia IID 1275): 0.1 µg/mL; MIC (S. epidermidis 56500; 56500): 0.05 µg/mL; MIC (K. pneumoniae TYPE I): 0.05 µg/mL; MIC (S. aureus FDA 209P): 0.012 µg/mL; MIC (S. aureus 870307; 870307): 0.39 µg/mL
C[C@H]1CN(c2c(F)cc3c(=O)c(C(=O)O)cn4c3c2OC[C@@H]4C)C[C@H]1N [Comparative Compound B, (3S)-10-[(3S,4S)-3-Amino-4-methylpyrrolidin-1-yl]-9-fluoro-2,3-dihydro-3-methyl-7-oxo-7H-pyrido[1,2,3-de][1,4]benzoxazine-6-carboxylic acid-hydrochloride, reference compound]	0.012	28.6 (16.8-48.5)^a) μg/5 μL/mouse	–	–	–	–	–	–	–	–	–	–	–	–	–	–	–	–	–	–	MIC (S. pyogenes G-36): 0.1 µg/mL; MIC (E. coli NIHJ): 0.012 µg/mL; MIC (P. Vulgalis 08601): 0.006 µg/mL; MIC (P. aeruginosa 32104; 32104): 0.1 µg/mL; MIC (E. faevcalis ATCC 19433): 0.2 µg/mL; MIC (S. marcescens 10100; 10100): 0.05 µg/mL; MIC (P. aeruginosa 32121; 32121): 0.025 µg/mL; MIC (S. pneumoniae J24; J24): 0.1 µg/mL; MIC (S. maltophilia IID 1275): 0.39 µg/mL; MIC (S. epidermidis 56500; 56500): 0.1 µg/mL; MIC (K. pneumoniae TYPE I): 0.05 µg/mL; MIC (S. aureus FDA 209P): 0.012 µg/mL; MIC (S. aureus 870307; 870307): 3.13 µg/mL
Cc1c(N2C[C@@H](N)[C@@H](C)C2)c(F)cc2c(=O)c(C(=O)O)cn(C3CC3)c12 [Comparative Compound C, reference compound]	0.025 (≈ 0.0696 µM)	–	3	4	5	72* %	98* %	0.2 (≈ 0.556 µM)	0.012 (≈ 0.0334 µM)	0.05 (≈ 0.139 µM)	0.39 (≈ 1.09 µM)	0.2 (≈ 0.556 µM)	0.2 (≈ 0.556 µM)	0.2 (≈ 0.556 µM)	0.1 (≈ 0.278 µM)	0.2 (≈ 0.556 µM)	0.1 (≈ 0.278 µM)	0.05 (≈ 0.139 µM)	0.025 (≈ 0.0696 µM)	1.56 (≈ 4.34 µM)	Percentile induction of structural aberration (TA %) ([1]; 100 μg/mL): TOX*^2; Observation of chromosomes (cytotoxicity) ([1]; at a concentration of 100 μg/mL): could not be observed
CC[C@H]1CN(c2c(F)cc3c(=O)c(C(=O)O)cn([C@@H]4C[C@@H]4F)c3c2OC)C[C@H]1N [Compound No. 1, 7-[(3S,4S)-3-Amino-4-ethylpyrrolidin-1-yl]-6-fluoro-1-[(1R,2S)-2-fluorocyclopropyl]-8-methoxy-1,4-dihydro-4-oxoquinoline-3-carboxylic acid]	0.006 (≈ 0.0147 µM)	49.2^b) μg/5 μL/mouse	0	1	2	3%	2%	0.05 (≈ 0.123 µM)	0.006 (≈ 0.0147 µM)	0.012 (≈ 0.0295 µM)	0.2 (≈ 0.491 µM)	0.1 (≈ 0.245 µM)	0.1 (≈ 0.245 µM)	0.1 (≈ 0.245 µM)	0.025 (≈ 0.0614 µM)	0.05 (≈ 0.123 µM)	0.05 (≈ 0.123 µM)	0.025 (≈ 0.0614 µM)	0.006 (≈ 0.0147 µM)	0.2 (≈ 0.491 µM)	Percentile induction of structural aberration (TA %) ([1]; 100 μg/mL): 7%; Significant increase in number of the cells exhibiting chromosomal aberration [1]: not observed
CC[C@H]1CN(c2c(F)cc3c(=O)c(C(=O)O)cn([C@@H]4C[C@@H]4F)c3c2C)C[C@H]1N [Compound No. 2, 7-[(3S,4S)-3-Amino-4-ethylpyrrolidin-1-yl]-6-fluoro-1-[(1R,2S)-2-fluorocyclopropyl]-8-methyl-1,4-dihydro-4-oxoquinoline-3-carboxylic acid]	≤ 0.003	–	1	1	1	2%	3%	0.025 (≈ 0.0639 µM)	≤ 0.003	0.006 (≈ 0.0153 µM)	0.05 (≈ 0.128 µM)	0.1 (≈ 0.255 µM)	0.025 (≈ 0.0639 µM)	0.025 (≈ 0.0639 µM)	0.025 (≈ 0.0639 µM)	0.05 (≈ 0.128 µM)	0.025 (≈ 0.0639 µM)	0.025 (≈ 0.0639 µM)	0.006 (≈ 0.0153 µM)	0.39 (≈ 0.996 µM)	Percentile induction of structural aberration (TA %) ([1]; 100 μg/mL): 8%; Significant increase in number of the cells exhibiting chromosomal aberration [1]: not observed
COc1c(N2C[C@@H](N)[C@@H](C3CC3)C2)c(F)cc2c(=O)c(C(=O)O)cn([C@@H]3C[C@@H]3F)c12 [Compound No. 8, 7-[(3S,4S)-3-Amino-4-cyclopropylpyrrolidin-1-yl]-6-fluoro-1-[(1R,2S)-2-fluorocyclopropyl]-8-methoxy-1,4-dihydro-4-oxoquinoline-3-carboxylic acid]	0.025 (≈ 0.0596 µM)	–	–	–	–	–	–	0.1 (≈ 0.238 µM)	0.006 (≈ 0.0143 µM)	0.025 (≈ 0.0596 µM)	0.2 (≈ 0.477 µM)	0.1 (≈ 0.238 µM)	0.1 (≈ 0.238 µM)	0.1 (≈ 0.238 µM)	0.1 (≈ 0.238 µM)	0.2 (≈ 0.477 µM)	0.1 (≈ 0.238 µM)	0.05 (≈ 0.119 µM)	0.012 (≈ 0.0286 µM)	0.39 (≈ 0.93 µM)	melting point: 211 to 214 °C
Cc1c(N2C[C@@H](N)[C@@H](C(C)C)C2)c(F)cc2c(=O)c(C(=O)O)cn([C@@H]3C[C@@H]3F)c12 [Compound No. 16, 7-[(3S,4S)-3-Amino-4-isopropylpyrrolidine-1-yl]-6-fluoro-1-[(1R,2S)-2-fluorocyclopropyl]-8-methyl-1,4-dihydro-4-oxoquinoline-3-carboxylic acid]	0.006 (≈ 0.0148 µM)	–	–	–	–	–	–	0.025 (≈ 0.0617 µM)	0.006 (≈ 0.0148 µM)	0.025 (≈ 0.0617 µM)	0.2 (≈ 0.493 µM)	0.1 (≈ 0.247 µM)	0.05 (≈ 0.123 µM)	0.1 (≈ 0.247 µM)	0.05 (≈ 0.123 µM)	0.05 (≈ 0.123 µM)	0.025 (≈ 0.0617 µM)	0.025 (≈ 0.0617 µM)	0.006 (≈ 0.0148 µM)	0.1 (≈ 0.247 µM)	melting point: 124 to 127 °C
